No end group written: not given here.
Key:
[1] = test system: primary neuronal cell cultures from rat cerebral cortex; assay: Assay of cyclic AMP formation; assay type: cell-based; settings: for Increase in cyclic AMP production over the basal level: forskolin 1 μM, PACAP27 0.1 μM, VIP 3 μM, rat neuronal cell cultures
[2] = test system: astrocyte cultures from rat cerebral cortex; settings: ref Woldan-Tambor et al. [2011]; cited from earlier work
OX2R = settings: heterologous expression systems; ref Sakurai et al. [1998]; Ammoun et al. [2003]; cited from earlier work

Row | Compound | Increase in cyclic AMP production over the basal level [1] | other results
1 | C=C[C@@]1(C)CC(=O)[C@]2(O)[C@@]3(C)[C@@H](O)CCC(C)(C)[C@@H]3[C@H](O)[C@H](OC(C)=O)[C@@]2(C)O1 [forskolin] | three- to fivefold over the basal level | –
2 | PACAP27 | three- to fivefold over the basal level | –
3 | VIP: vasoactive intestinal peptide (human, porcine, and rat) (HSDAVFTDNYTRLRKQMAVKKYLNSILN; ends and bridges not checked; UniProt P01282 125-152, looked up) | three- to fivefold over the basal level | –
4 | [Ala^11-D-Leu^15]orexin B | – | Effect on basal cyclic AMP accumulation ([1]; 0.001–1 μM, cultured rat cortical neurons, data not shown): No significant effects
5 | orexin A: neuropeptide, an agonist of OX1R and OX2R; from NeoMPS (QPLPDCCRQKTCSCRLYELLHGAGNHAAGILTL; ends and bridges not checked; cysteine pairing not given here; UniProt O43612 34-66, looked up) | – | Effect on cyclic AMP synthesis in astrocyte cultures [2]: stimulatory effect
6 | orexin B: neuropeptide derived from preproorexin; literature affinity only | – | Affinity of OX2R for orexins A and B (OX2R): equal affinity

Reference: article PMC3260434 (Journal of Molecular Neuroscience, 2011)
